Laboratory results from patent US9540343B2 (Gilead Sciences, Inc., priority 2011, dated 2017).

Key:
HIV-IIIb = test: Test A: Antiviral assay in MT4 cells; type: cell-based, HIV-1; conditions: percent inhibition of virus-induced cell killing, from dose response curve at 2 uM drug; MT-4 cells infected with HIV-IIIb, 5 days, CellTiter-Glo
MT-4 cells = test: in vitro; conditions: uninfected MT-4 cells, same protocol as Test A, 5 days, CellTiter-Glo
Procedure, shortened: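 Cytoprotection read-out: CellTiter-Glo chemiluminescence after 5 days at 37 °C of HIV-IIIb-infected MT-4 cells (m.o.i. 0.003) with compound in 10-point 3-fold dilutions, quadruplicate, 10% FBS. Cytotoxicity (CC50) measured identically without virus.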

Compound: CCC(C(=O)N[C@@H](Cc1cc(F)cc(F)c1)c1ncccc1-c1ccc(F)c(C(N)=O)c1)n1cc(C(C)=O)c2ccccc21 (stereo partly drawn) [Example 554, 5-(2-((1S)-1-(2-(3-acetyl-1H-indol-1-yl)butanamido)-2-(3,5-difluorophenyl)ethyl)pyridin-3-yl)-2-fluorobenzamide]
- % inhibition at 2 μM (HIV-IIIb): 63%
- CC50 (MT-4 cells): 48.9 µM

Compound: (S)-5-(2-(1-(2-(5-(difluoromethyl)-3-phenyl-1H-pyrazol-1-yl)acetamido)-2-(3,5-difluorophenyl)ethyl)pyridin-3-yl)-2-fluorobenzamide [Example 240C]
- % inhibition at 2 μM (HIV-IIIb): 0%
- CC50 (MT-4 cells): 34.9 µM

Compound: (S)—N-(1-(3-(4-(pyrrolidinylcarbonylamino)phenyl)-pyridin-2-yl)-2-(3,5-difluorophenyl)ethyl)-2-(3-(difluoromethyl)-5,6-dihydro-4,5-(methano)-6,6-difluoro-cyclopenta[c]pyrazol-1(4H)-yl)acetamide [Example 80]
- % inhibition at 2 μM (HIV-IIIb): 0%
- CC50 (MT-4 cells): > 53.2 µM
